Laboratory results published in patent US20240003908A1, “POLYOL BIOMARKERS FOR CONGENITAL DISORDERS OF GLYCOSYLATION” (Mayo Foundation for Medical Education and Research, priority 2020, published 2024).
“And” between values parts separate entries of the source, which are not always exact repeats. Equal values may be shown once. Marks after values point to notes of the source that are not given here.

Columns and labels:
[1] = system: PMM-deficient fibroblasts; experiment: Multiplexed proteomics of PMM-deficient fibroblasts treated with epalrestat or vehicle; assay type: cell-based, human
Text: Proteomics and glycoproteomics: Cell were scraped in PBS, pH 7.4 and sonicated with a tip sonicator at 40% amplitude for 3 cycles of 10 seconds each. Equal amount of proteins were digested with trypsin as described elsewhere (Mun et al., Anal Chem 92:14466-14475, 2020). The digested peptides were labeled with tandem mass tag (TMT) reagents as per the manufacturer's instructions (ThermoFisher). Labelled samples were pooled, and either size-exclusion chromatography or basic pH reversed-phase fractionation was performed. An aliquot of dried peptides was resuspended in 100 μL of 0.1% formic acid and injected into Superdex peptide 10/300 column (GE Healthcare). Twenty-one (21) early fractions were collected starting at 10 minutes after injection (total run time of 130 minutes) and analyzed by LC-MS/MS as described elsewhere (Mun et al., supra). Another aliquot of total peptides was cleaned up by C18 TopTips (Glygen) and fractionated by bRPLC on a reversed phase C18 column (4.6×100 mm column). Twelve (12) fractions were dried and re-suspended in 0.1% formic acid for LC-MS/MS analysis.
A modification of the LC-MS/MS parameters described by Mun et al. (supra) were used. Specifically, 21 early fractions from SEC and 12 fractions of bRPLC were analyzed by Orbitrap Exploris480 mass spectrometer (Thermo Fisher Scientific) coupled to an EASY-Spray column (Thermo Fisher Scientific). Every run was 130 minutes with a flow rate of 300 nL/minute. The gradient used for separation was: equilibration at 3% solvent B from 0 to 4 minutes, 3% to 10% sol B from 4 to 10 minutes, 10% to 35% sol B from 10.1 to 125 minutes, and 35% to 80% sol B from […]. All experiments were done in DDA mode with the top 15 ions isolated at a window of 0.7 m/z and a default charge state of +2. Charge states ranging from +2 to +7 were considered for MS/MS events. Stepped collision energy was applied to precursors at normalized collision energies of 15, 25, and 40. The MS precursor mass range was set to 375 to 2000 m/z and 100 to 2000 for MS/MS. The automatic gain control for MS and MS/MS were 1×10^6 and 1×10^5 and the injection times to reach AGC were 50 ms and 250 ms, respectively. 60 second dynamic exclusion was applied. Data acquisition was performed with the option of Lock mass (441.1200025 m/z) for all data.
Database searching and analysis: The publicly available software pGlyco Version 2.2.0 was used (Zeng et al., Sci Rep 6:25102, 2016; and Liu et al., Nat Commun 8:438, 2017). A glycan database containing 8,092 entries and Uniprot Human Reviewed protein sequences (20,432 entries) were used as protein sequence fasta files. […] Reporter ion quantification was performed in Proteome Discoverer 2.5 using “reporter ion quantifier” node and Ids were matched with quantitation on a scan-to-scan basis (MS/MS). […]

[2] = system: blood transferrin glycosylation; experiment: Blood transferrin glycoform ratio analysis by mass spectrometry in patient P1; assay type: in vivo, human; settings: for A-oligo/Di-oligo: control ratio ≤ 0.01; for Mono-oligo/Di-oligo: control ratio ≤ 0.06
Protocol: Patient assessment: Prior to the first dose of epalrestat and at 1, 2, 3, 6, 8, 9, 12 months during treatment, concomitant medications and vital signs were recorded and the patient was evaluated using the NPCRS. In addition, blood was drawn for serum chemistry, hematology, and plasma levels of epalrestat. Urine was collected for polyol measurement at baseline and twice over the course of 12 months of therapy.
Safety and efficacy: Safety measures included vital signs, change in CBC, liver function (INR, bilirubin, transaminases, and albumin) in blood, change in liver elastography, and following the pharmacokinetic profile of epalrestat. The efficacy of epalrestat was studied by clinical follow up (physical exam, NPCRS, ICARS), standard laboratory tests, and transferrin glycoform analysis by mass spectrometry.

[3] = Epalrestat plasma pharmacokinetics (LC-MS/MS) in patient P1; assay type: in vivo, human
Protocol: Pharmacokinetics: Epalrestat plasma concentrations were measured using an LC-MS/MS assay that was validated according to principles outlined in FDA Guidance Documents. Epalrestat-d5 was utilized as the internal standard. The mass spectrometer was coupled to a Waters Acquity H class ultra-performance liquid chromatography system (Milford, MA). Data were acquired and analyzed with Waters MassLynx v4.1 software. The chromatographic separation of epalrestat and the internal standard was accomplished using an Agilent Infinity Lab Poroshell 120 EC-C18 column, 2.1×100 mm, 2.7 μm (ChromTech, Apple Valley, MN) with an Agilent Poroshell 120 EC-C18 precolumn, 2.1×5 mm, 2.7 μm (ChromTech). Plasma samples were analyzed after protein precipitation with methanol, concentration to dryness under nitrogen, and reconstitution in methanol:water (1:1 v/v). Pharmacokinetics were estimated by non-linear least squares regression using the program Phoenix WinNonlin.

[4] = system: urine sorbitol and mannitol; experiment: Urine polyols (GC/MS) in patients with other CDG, post-treatment with epalrestat; assay type: in vivo, human
Protocol: Urine specimens were collected from patients known to have a CDG. The samples were spiked with a mixture of labeled internal standards, allowed to equilibrate, and evaporated. The dry residue was derivatized to form trimethylsilyl esters then extracted with hexane. Specimens were analyzed by GC/MS, with selected ion monitoring using ammonia chemical ionization and a stable isotope dilution method (Jansen et al. Clin Chim Acta 1986, 157:277-294; and Kaur et al., Eur J Med Genet 2019, 62(8):103708). Sorbitol levels were considered elevated when they were above 10 mmol/mol creatinine, and mannitol levels were considered elevated when they were above 15 mmol/mol creatinine.

concentration at 8 h ([3]; human, plasma, oral, 5 mg, patient P1, after eight hours, read-out: trough level before the next dose): 23.4 ng/mL and 100 nM
AUC ([3]; human, plasma, oral, patient P1, after a 5 mg dose, read-out: systemic exposure (AUC)): 2790 ng·h/mL
half-life ([3]; human, plasma, po, 5 mg, patient P1, oral dose, plasma, read-out: t½ (converted)): ~1.04 h
oral clearance ([3]; patient P1, after a 5 mg dose): 1.8 L/h
time of peak concentration after administration ([3]; patient P1, oral 0.27 mg/kg (5 mg) dose): one
peak concentration in plasma ([3]; patient P1, oral 0.27 mg/kg (5 mg) dose, 0.27 mg/kg): 1125 ng/ml and 3.5 μM
plasma concentration over time profile ([3]; patient P1, oral dose): rapid absorption and elimination
t½ ([3]; patient P1, oral dose, plasma): 1 to 2 h
Compound: CC(/C=C1\SC(=S)N(CC(=O)O)C1=O)=C\c1ccccc1 [epalrestat]
Sorbitol dehydrogenase (SORD) increase in abundance ([1]; epalrestat-treated vs untreated PMM2-CDG fibroblasts): 11%
number of proteins increased post treatment (30% cutoff) ([1]; of the 13 changed proteins): 12
number of proteins different post-treatment with a 30% or bigger change cutoff ([1]; paired analysis before and after epalrestat): 13 proteins
number of proteins different post-treatment ([1]; paired analysis before and after epalrestat, P1-P6 fibroblasts): 628 proteins
A-oligo/Di-oligo ([2]; patient P1, 1st month of epalrestat, prior to first dose 0.005): 0.005
Mono-oligo/Di-oligo ([2]; patient P1, 1st month of epalrestat, prior to first dose 0.09): 0.14
A-oligo/Di-oligo ([2]; patient P1, 2nd month): 0.01
Mono-oligo/Di-oligo ([2]; patient P1, 2nd month): 0.07
A-oligo/Di-oligo ([2]; patient P1, 3rd month): 0.004
Mono-oligo/Di-oligo ([2]; patient P1, 3rd month): 0.08
A-oligo/Di-oligo ([2]; patient P1, 6th month): 0.003
Mono-oligo/Di-oligo ([2]; patient P1, 6th month): 0.06
A-oligo/Di-oligo ([2]; patient P1, 8th month): 0.004
Mono-oligo/Di-oligo ([2]; patient P1, 8th month): 0.06
A-oligo/Di-oligo ([2]; patient P1, 9th month): 0.004
Mono-oligo/Di-oligo ([2]; patient P1, 12th month, after dose correction): 0.06
A-oligo/Di-oligo ([2]; patient P1, 12th month): 0.004
Mannitol (urine) ([4]; MAN1B1-CDG patient, second sample, after off-label epalrestat, first sample 14.92): 2) 10.13 mmol/mol creatinine
Sorbitol (urine) ([4]; MAN1B1-CDG patient, second sample, post-treatment with epalrestat, first sample 10.44): 2) 7.222^‡ mmol/mol creatinine
Sorbitol (urine) ([4]; SLC39A8-CDG patient, marked post-treatment with epalrestat): 18.0^‡ mmol/mol creatinine
